Experimental data reported in patent publication US5482923A, “Heparin neutralization with platelet factor 4 fragments” (Repligen Corporation, priority 1993, dated 1996).
Entries after “also recorded” stand apart in the source; their conditions may differ.

Columns and labels:
Factor Xa = Factor Xa assay: prevention of heparin inhibition of Factor Xa; assay type: biochemical; details: for ability to prevent heparin inhibition of Factor Xa: in vitro; for restoration of Factor Xa activity: low concentrations
Source text: (§1) The lysine rich region of PF4 (residues 61-66) is also the domain associated with the binding of heparin by PF4. Heparin is known to play a role in modulating anglogenesis, which can also be affected by protamine, another well characterized heparin-binding protein. To assess the ability of PF4-based synthetic peptides to bind heparin, we assayed the activity of coagulation-cascade enzymes which are inhibited by heparin. The Factor Xa assay used here has previously been described in Denton et al., Biochem. J., 209:455-460 (1983).
PF4 isolated from platelets and recombinant E. coli cells were compared for their abilities to prevent heparin inhibition of Factor Xa (essential for the production of thrombin) in vitro.
The abilities of protamine and rPF4 to prevent heparin-inhibition of the coagulation enzyme Factor Xa were compared. The details of the assay are described by Denton et al, 1983, Biochem. J. 209:455. In the Factor Xa assay, 0.5 units of heparin inhibited enzymatic activity almost 90%.
Similar studies and results may be obtained using certain fragments of PF4 or rPF4 that include the heparin binding region, residues 61-66.

thrombin = assay: Prevention of heparin inhibition of thrombin, conditions similar to the Factor Xa experiments; assay type: biochemical; details: for ability to prevent heparin inhibition of thrombin: in vitro; for prevention of heparin inhibition of thrombin: 1 μM
Source text: as §1
In experiments carried out under conditions similar to the Factor Xa experiments, thrombin was inhibited 99% by 0.25 units of heparin.

normal human plasma = assay: Neutralization of heparin in human plasma (APTT); details: 1 unit/ml of heparin; for restoring the APTT to its heparin-free level: added during the incubation before activated thromboplastin
Source text: Neutralization of heparin in human plasma was also examined. The activated partial thromboplastin time (APTT) of normal human plasma was increased from its base level of approximately 30 seconds to 195 seconds by the addition of 1 unit/ml of heparin.

Sprague Dawley rats [1] = assay: In vivo heparin neutralization in rats (APTT); set-up: species or system rat; details: for APTT after neutralizing agent: heparin 1 unit/g at t=0, agent at t=2 min, protamine sulfate 1 ug/g, PF4 7.5 ug/g, read at t=10 min
Experimental: (§2) In Vivo experiments were performed on rats to compare the heparin neutralizing activity of protamine and PF4 and to investigate the effect of PF4 on platelet and white blood cell count.
(§3) Sprague Dawley rats (225 g) were anesthetized with pentobarbital, the trachea was intubated, and the right femoral vein and carotid artery were cannulated. The intravenous infusion of heparin was followed by infusion of either protamine or rPF4. Arterial blood samples were taken prior to and immediately after heparin infusion and at several time points following the infusion of the neutralizing agent. Controls were conducted with Ringer's solution in place of heparin and the experimental agents. Samples were used for the following determinations: clotting time, platelet count, and white blood cell count.
(§4) Referring to FIGS. 1 and 2, data are shown from a typical experiment comparing the platelet count, white blood cell count and the APTT in rats when injected with heparin followed by protamine sulfate (FIG. 1) and when injected with heparin followed by rPF4 (FIG. 2). In these Figs., heparin was injected at t=0 and either protamine sulfate or rPF4 injected two minutes thereafter (t=2 minutes). The dosages used were: heparin 1 unit/g animal wt.; protamine sulfate 1 ug/g animal wt.; and PF4 7.5 ug/g animal wt.
Referring now to FIGS. 3 to 5, statistical bar graph data are shown comparing APTT, platelet count, (PC) and white blood cell (WBC) count in rats injected with a control solution, Ringers solution (FIG. 3), injected with heparin followed by protamine sulfate (FIG. 4) and injected with heparin followed by rPF4 (FIG. 5). […]
Samples A were taken before injection; samples B, 2 min after heparin injection; samples C, 10 min after heparin and 8 min after protamine sulfate injection; and samples D, 18 min after heparin injection. Data represent mean values and S.E.M. from experiments except that white blood cells and platelets were counted only in 3 samples taken at 2 and at 18 min after heparin injection. […]

Sprague Dawley rats [2] = assay: In vivo effect on platelet count, white blood cell count and hematocrit in heparinized rats; set-up: species or system rat; details: for platelet count, % of initial: after heparin followed by neutralizing agent, FIGS. 4 and 5; for hematocrit levels: conditions as for FIGS. 1 and 2; for change of platelet and white blood cell counts: heparin 100 units/100 g followed by protamine sulfate 100 μg/100 g or rPF4 7.5 μg/g; for white blood cell count / platelet count: t=10 minutes, 8 min after agent, protamine sulfate 1 ug/g, PF4 7.5 ug/g; for white blood cell count: protamine sulfate group over 5 at t=0; for platelet count: t=0: protamine sulfate over 800, rPF4 700
Experimental: as §2, §3, §4
Experiments were also conducted to investigate hematocrit levels under conditions as described with respect to FIGS. 1 and 2. No change in hematocrit levels were observed when either PF4 or protamine were used for heparin neutralization.
Referring now to FIGS. 3 to 5, statistical bar graph data are shown comparing APTT, platelet count, (PC) and white blood cell (WBC) count in rats injected with a control solution, Ringers solution (FIG. 3), injected with heparin followed by protamine sulfate (FIG. 4) and injected with heparin followed by rPF4 (FIG. 5). The data included control rats, five rats injected with heparin followed by protamine sulfate and two rats injected with heparin followed by rPF4.
Samples A were taken before injection; samples B, 2 min after heparin injection; samples C, 10 min after heparin and 8 min after protamine sulfate injection; and samples D, 18 min after heparin injection. Data represent mean values and S.E.M. from experiments except that white blood cells and platelets were counted only in 3 samples taken at 2 and at 18 min after heparin injection. […] The decrease was statistically significant (p<0.01) as compared to samples obtained before heparin injection.
Data represent mean values and S.E.M. from 2 experiments for samples taken at times A-D as indicated in the discussion above with respect to FIG. 4.

Sprague Dawley rats [3] = assay: as above; set-up: species or system rat; details: low doses of rPF4 (150 μg/100g); three experiments

Row | Substance | ability to prevent heparin inhibition of Factor Xa (Factor Xa) | ability to prevent heparin inhibition of thrombin (thrombin) | inhibition of Factor Xa enzymatic activity (Factor Xa; 0.5 units of heparin) [%] | inhibition of thrombin (thrombin; 0.25 units of heparin) [%] | activated partial thromboplastin time (APTT) (normal human plasma; base level approximately 30 seconds) [s] | restoration of Factor Xa activity (Factor Xa; 0.5 units of heparin) | prevention of heparin inhibition of thrombin (thrombin; 0.25 units of heparin) | molar dose responses, rPF4 compared with protamine (thrombin; 0.25 units of heparin) | restoring the APTT to its heparin-free level (normal human plasma) | APTT after neutralizing agent (Sprague Dawley rats [1]) | platelet count, % of initial (Sprague Dawley rats [2]) [%] | WBC count (Sprague Dawley rats [2]; after heparin followed by protamine sulfate, FIG. 4) | hematocrit levels (Sprague Dawley rats [2]) | respiratory problems (Sprague Dawley rats [2]; heparin 1 unit/g followed by protamine sulfate 1 ug/g) | change of platelet and white blood cell counts (Sprague Dawley rats [2]) | white blood cell count (Sprague Dawley rats [2]) | platelet count (Sprague Dawley rats [2]) | preventing Factor Xa inhibition, compared with protamine (Factor Xa; concentrations greater than 1 μM, 0.5 units of heparin) | neutralization of the anticoagulant effect of heparin (Sprague Dawley rats [1]; low doses of rPF4 (150 μg/100g), three experiments) | effect on platelets and white blood cells (Sprague Dawley rats [3])
1 | C-41: The 41 amino acid C-terminal peptide of PF4 (IKAGPHCPTAQLIATLKNGRKICLDLQAPLYKKIIKKLLES; UniProt P02776 61-101, looked up, fragment) | prevented heparin inhibition less effectively; also recorded: demonstrated the ability to neutralize heparin in vitro | prevented heparin inhibition less effectively | – | – | – | – | – | – | – | – | – | – | – | – | – | – | – | – | – | –
2 | heparin [reference compound] | – | – | ~90 | 99 | 195 | – | – | – | – | – | – | – | – | – | – | – | – | – | – | –
3 | protamine | able to prevent the heparin inhibition of thrombin and Factor Xa at approximately equimolar concentrations | able to prevent the heparin inhibition of thrombin and Factor Xa at approximately equimolar concentrations | – | – | – | partially restored Factor Xa activity | completely prevented heparin inhibition | no significant difference in their molar dose responses | equally effective in restoring the APTT to its heparin-free level | decrease in the APTT to approximately normal levels after about 10 minutes | 48±12.2 | decreased | No change | These rats also had respiratory problems | significant decrease of white blood cell count and platelet count; also recorded: drop in platelet and white blood cell counts | less than 3 ×10^3 /μl | less than 500 ×10^3 /μl | – | – | –
4 | C-13: C-13 peptide of PF4, a PF4-based synthetic peptide (PLYKKIIKKLLES; UniProt P02776 89-101, looked up, fragment) | – | unable to prevent the inhibition of thrombin even at concentrations ten times that of an effective level of rPF4 | – | – | – | – | – | – | – | – | – | – | – | – | – | – | – | – | – | –
5 | rPF4: Recombinant native sequence human platelet factor 4, 70 residues, produced in E. coli as a fusion protein and cleaved with CNBr | able to prevent the heparin inhibition of thrombin and Factor Xa at approximately equimolar concentrations | able to prevent the heparin inhibition of thrombin and Factor Xa at approximately equimolar concentrations | – | – | – | partially restored Factor Xa activity | completely prevented heparin inhibition | no significant difference in their molar dose responses | equally effective in restoring the APTT to its heparin-free level | restoration of normal APTT levels | 89±4.9 | – | No change | – | did not lead to the extensive depletion of platelet and white blood cells; also recorded: did not produce a statistical decrease in platelet and white blood count | about 4 ×10^3 /μl | about 500 ×10^3 /μl | clearly more effective in preventing Factor Xa inhibition | partially neutralized | no effect on platelets and white blood cells
